Several values for one entry are separate records, joined by “and”; a condition that tells them apart may be missing. Equal values may be shown once.
Tests used:
[1] = target: Glycogen synthase kinase-3 alpha (Homo sapiens, UniProt P49840); assay: TR-FRET Assay
Method in brief: (§1)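 Enzyme and test compound were first incubated together for 30 minutes in assay buffer. The kinase reaction followed and was stopped with EDTA. The pSer641 signal was read by time-resolved FRET.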

[2] = target: Glycogen synthase kinase-3 beta (Homo sapiens, UniProt P49841); assay: TR-FRET Assay
Sequence of Glycogen synthase kinase-3 beta (P49841 whole entry): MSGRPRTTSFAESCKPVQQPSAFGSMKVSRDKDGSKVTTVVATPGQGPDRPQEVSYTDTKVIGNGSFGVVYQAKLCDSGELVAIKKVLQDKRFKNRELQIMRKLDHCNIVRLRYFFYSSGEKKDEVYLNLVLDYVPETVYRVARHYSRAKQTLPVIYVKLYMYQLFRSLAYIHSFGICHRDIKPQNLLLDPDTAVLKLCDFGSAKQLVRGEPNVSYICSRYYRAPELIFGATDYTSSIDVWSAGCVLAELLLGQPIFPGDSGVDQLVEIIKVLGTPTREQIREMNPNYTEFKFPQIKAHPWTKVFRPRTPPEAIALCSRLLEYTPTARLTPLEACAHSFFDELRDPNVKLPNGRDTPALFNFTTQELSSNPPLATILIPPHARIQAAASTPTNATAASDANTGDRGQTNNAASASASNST
Method in brief: as §1

Sequence of Glycogen synthase kinase-3 alpha (P49840 whole entry): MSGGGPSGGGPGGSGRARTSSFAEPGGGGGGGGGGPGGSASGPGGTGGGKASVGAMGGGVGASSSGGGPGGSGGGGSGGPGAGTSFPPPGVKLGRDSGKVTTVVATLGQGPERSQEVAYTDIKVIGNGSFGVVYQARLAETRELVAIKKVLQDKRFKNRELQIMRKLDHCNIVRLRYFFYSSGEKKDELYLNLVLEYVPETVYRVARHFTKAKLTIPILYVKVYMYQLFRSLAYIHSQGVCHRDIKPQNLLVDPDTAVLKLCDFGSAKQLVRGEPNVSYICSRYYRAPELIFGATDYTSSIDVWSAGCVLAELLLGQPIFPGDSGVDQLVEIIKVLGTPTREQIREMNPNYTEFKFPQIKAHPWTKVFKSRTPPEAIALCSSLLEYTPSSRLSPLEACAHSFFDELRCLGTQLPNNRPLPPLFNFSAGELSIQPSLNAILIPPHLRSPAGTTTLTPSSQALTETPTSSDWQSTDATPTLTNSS

| IC50 [1] | IC50 [2] | Structure (SMILES) |
| --- | --- | --- |
| 100 to 1000 nM | 1000 to 5000 nM | CC[C@@]1(c2cccc(-c3cnn(CCN4CCCC4)c3)c2)C2=CN=NC2NC2=C1C(=O)NC(C)(C)C2 (stereo partly specified) [US20250313563, Compound 952022] |
| < 100 nM | < 100 nM and 100 to 1000 nM | CC[C@]1(c2cccc(-c3ccnc(C)c3)c2)C2=C(CC(C)(C)CC2=O)NC2N=NC(C(F)(F)F)=C21 (stereo partly specified) [US20250313563, Compound 917291] |
| < 100 nM | 100 to 1000 nM | CCC1(c2cccc(N3CC4CCC3C4)c2)C2=CN=NC2NC2=C1C(=O)CC(C)(C)C2 (stereo unspecified) [US20250313563, Compound 885110] |
| < 100 nM | 100 to 1000 nM | CC1(C)CC(=O)C2=C(C1)NC1=C(CN=N1)C21CN(CC(F)(F)F)C1 [US20250313563, Compound 912074] |
| < 100 nM | 100 to 1000 nM | CCC1(c2cccc(-c3cnn(C)c3C)c2)C2=C(CC(C)(C)NC2=O)NC2N=NC(C)=C21 (stereo unspecified) [US20250313563, Compound 944028] |
| 1000 to 5000 nM | > 5000 nM | CC[C@@]1(c2cccc(C(F)(F)F)c2)C2=CN=NC2NC2=C1C(=O)N(c1ccn(C)n1)CC2 (stereo partly specified) [US20250313563, Compound 949836] |
| 100 to 1000 nM | 1000 to 5000 nM | CC[C@@]1(c2ccccc2)C2=CN=NC2NC2=C1C(=O)C[C@](C)(COC)C2 (stereo partly specified) [US20250313563, Compound 816873] |
| 100 to 1000 nM | 1000 to 5000 nM | CC[C@]1(c2cccc(-c3ccncc3)c2)C2=C(CC(C)(C)CC2=O)NC2N=NC(C)=C21 (stereo partly specified) [US20250313563, Compound 913054] |
| 100 to 1000 nM | 100 to 1000 nM | CC[C@]1(c2cccc(-c3cnn(C)c3)c2)C2=CN=NC2NC2=C1C(=O)CC(C)(C)C2 (stereo partly specified) [US20250313563, Compound 819577] |
| > 5000 nM | > 5000 nM | CC[C@@]1(c2cccc(C(F)(F)F)c2)C2=CN=NC2NC2=C1C(=O)N(C(C)C)CC2 (stereo partly specified) [US20250313563, Compound 857362] |
| 100 to 1000 nM and > 5000 nM | 100 to 1000 nM and > 5000 nM | CC[C@@]1(c2ccccc2)C2=CN=NC2NC2=C1C(=O)CC(C)(C)[C@H]2F (stereo partly specified) [US20250313563, Compound 957200] |
| < 100 nM | 100 to 1000 nM | CCn1ccc(S(=O)(=O)N2CCC3(CC2)C2=CN=NC2NC2=C3C(=O)NC(C)(C)C2)n1 (stereo unspecified) [US20250313563, Compound 947836] |
| < 100 nM | < 100 nM | CC1(C)CC(=O)C2=C(C1)NC1=C(CN=N1)C21CCN(S(C)(=O)=O)CC1 [US20250313563, Compound 880776] |
| 100 to 1000 nM | 100 to 1000 nM | CC1(C)CC(=O)C2=C(C1)NC1=C(CN=N1)C21CCCCCC1 [US20250313563, Compound 883978] |
| < 100 nM | 100 to 1000 nM | CCC1(c2ccccc2)C2=C(N=NC2)NC2=C1C(=O)CC1(CCCC1)C2 (stereo unspecified) [US20250313563, Compound 785737] |
| < 100 nM | < 100 nM and 100 to 1000 nM | CCC1(c2cccc(S(=O)(=O)c3ccccc3)c2)C2=CN=NC2NC2=C1C(=O)CC(C)(C)C2 (stereo unspecified) [US20250313563, Compound 913123] |
| < 100 nM | < 100 nM | CC1(C)CC(=O)C2=C(C1)NC1=C(CN=N1)C21CCN(S(=O)(=O)c2cnc3ccccn23)CC1 [US20250313563, Compound 947610] |
| < 100 nM | 100 to 1000 nM | CC[C@]1(c2cccc(C(F)(F)F)c2)C2=CN=NC2NC2=C1C(=O)N(c1ccsc1)CC2 (stereo partly specified) [US20250313563, Compound 952630] |
| < 100 nM | < 100 nM | CC1(C)CC(=O)C2=C(C1)NC1=C(CN=N1)[C@]21COC2(CN(C(=O)C(C)(F)F)C2)C1 [US20250313563, Compound 947838] |
| < 100 nM | < 100 nM and 1000 to 5000 nM | CC[C@@]1(c2cccc(-c3ccncc3F)c2)C2=CN=NC2NC2=C1C(=O)NC(C)(C)C2 (stereo partly specified) [US20250313563, Compound 947869] |
| 100 to 1000 nM | 100 to 1000 nM | CC1(C)CC(=O)C2=C(C1)NC1=C(CN=N1)C21CN(CC(F)F)C1 [US20250313563, Compound 912073] |
| < 100 nM and 100 to 1000 nM | < 100 nM and 1000 to 5000 nM | CC[C@]1(c2cccc(C(F)F)c2)C2=CN=NC2NC2=C1C(=O)CC(C)(C)C2 (stereo partly specified) [US20250313563, Compound 826717] |
| 100 to 1000 nM | 100 to 1000 nM | CC(C)(C)CC1=C2C(N=N1)NC1=C(C(=O)CC(C)(C)C1)C21CCc2cccc(F)c21 (stereo unspecified) [US20250313563, Compound 789583] |
| 100 to 1000 nM | 1000 to 5000 nM | CC[C@]1(c2ccccc2)C2=CN=NC2NC2=C1C(=O)C[C@]1(CCOC1)C2 (stereo partly specified) [US20250313563, Compound 816884] |
| < 100 nM | 100 to 1000 nM | CC[C@]1(c2cccc(-c3ccnc(C)c3)c2)C2=CN=NC2NC2=C1C(=O)N[C@@]1(CCOC1)C2 (stereo partly specified) [US20250313563, Compound 948140] |
| 1000 to 5000 nM | > 5000 nM | CC[C@]1(c2cccc(-c3cc(OC)ncc3F)c2)C2=CN=NC2NC2=C1C(=O)CC(C)(C)C2 (stereo partly specified) [US20250313563, Compound 944035] |
| < 100 nM and 100 to 1000 nM | < 100 nM and 1000 to 5000 nM | CC[C@]1(c2cccc(-c3ccnc4c3CCC4)c2)C2=CN=NC2NC2=C1C(=O)NC(C)(C)C2 (stereo partly specified) [US20250313563, Compound 948313] |

| IC50 [1] | IC50 [2] | Structure (SMILES) |
| --- | --- | --- |
| < 100 nM | < 100 nM | CC1(C)CC(=O)C2=C(C1)NC1=C(CN=N1)C21CCN(S(=O)(=O)c2cccc3ncccc23)CC1 [US20250313563, Compound 947469] |
| 1000 to 5000 nM | > 5000 nM | CC[C@]1(c2cccc(S(C)(=O)=O)c2)C2=CN=NC2NC2=C1C(=O)NC(C)(C)C2 (stereo partly specified) [US20250313563, Compound 945621] |
| < 100 nM | < 100 nM and 100 to 1000 nM | CC[C@@]1(c2cccc(-c3cn(C)nc3C)c2)C2=C(CC(C)(C)NC2=O)NC2N=NC(C)=C21 (stereo partly specified) [US20250313563, Compound 946001] |
| < 100 nM | 100 to 1000 nM | CC1(C)CC(=O)C2=C(C1)NC1=C(CN=N1)C21CCCc2ccccc21 (stereo unspecified) [US20250313563, Compound 913219] |
| 100 to 1000 nM | 1000 to 5000 nM | CC[C@@]1(c2cccc(-c3cnn(C)c3C)c2)C2=C(CC(C)(C)CC2=O)NC2N=NC(C)=C21 (stereo partly specified) [US20250313563, Compound 913024] |
| 1000 to 5000 nM | > 5000 nM | CC[C@]1(c2cccc(-c3cc(C)ncc3F)c2)C2=C(CC(C)(C)NC2=O)NC2N=NC(C)=C21 (stereo partly specified) [US20250313563, Compound 949327] |
| < 100 nM and 1000 to 5000 nM | < 100 nM and 1000 to 5000 nM | CC1(C)CC(=O)C2=C(C1)NC1=C(CN=N1)[C@@]21CC[C@@H](C(F)(F)F)C1 [US20250313563, Compound 952436] |
| 100 to 1000 nM | 1000 to 5000 nM | CCC1(c2cccc(OC)c2)C2=CN=NC2NC2=C1C(=O)CC(C)(C)C2 (stereo unspecified) [US20250313563, Compound 801447] |
| < 100 nM | 100 to 1000 nM | CCC1(c2cccc(SC)c2)C2=CN=NC2NC2=C1C(=O)CC(C)(C)C2 (stereo unspecified) [US20250313563, Compound 810508] |
| < 100 nM | < 100 nM | CCC1(c2cccc(-c3cc(OC)ncc3F)c2)C2=CN=NC2NC2=C1C(=O)CC(C)(C)C2 (stereo unspecified) [US20250313563, Compound 932630] |
| < 100 nM | 100 to 1000 nM | CC[C@]1(c2cccc(-c3cnn(C)c3)c2)C2=C(CC(C)(C)NC2=O)NC2N=NC(C(F)(F)F)=C21 (stereo partly specified) [US20250313563, Compound 947871] |
| < 100 nM | 100 to 1000 nM | CCC1(c2cccc(C(F)(F)F)c2)C2=CN=NC2NC2=C1C(=O)N(c1cccs1)CC2 (stereo unspecified) [US20250313563, Compound 950614] |
| < 100 nM | 100 to 1000 nM | CC1(C)CC(=O)C2=C(C1)NC1=C(CN=N1)C21CCN(S(=O)(=O)c2cn3c(n2)CCCC3)CC1 [US20250313563, Compound 947472] |
| < 100 nM | < 100 nM | CC1(C)CC(=O)C2=C(C1)NC1=C(CN=N1)[C@]21C[C@@H](n2cccn2)C1 [US20250313563, Compound 884004] |
| < 100 nM and 100 to 1000 nM | < 100 nM and 1000 to 5000 nM | CC[C@]1(c2cccc(C(C)C)c2)C2=CN=NC2NC2=C1C(=O)CC(C)(C)C2 (stereo partly specified) [US20250313563, Compound 810373] |
| < 100 nM and 100 to 1000 nM | < 100 nM and 1000 to 5000 nM | CC[C@@]1(c2cccc(C3CC3)c2)C2=CN=NC2NC2=C1C(=O)CC(C)(C)C2 (stereo partly specified) [US20250313563, Compound 811557] |
| < 100 nM | 100 to 1000 nM | CC1(C)CC(=O)C2=C(C1)NC1=C(CN=N1)C21CCN(S(=O)(=O)c2cnn(C(C)(C)C)c2)CC1 [US20250313563, Compound 945677] |
| < 100 nM | < 100 nM | CCC1(c2cccc(-c3c(C)cncc3C)c2)C2=CN=NC2NC2=C1C(=O)CC(C)(C)C2 (stereo unspecified) [US20250313563, Compound 945703] |
| < 100 nM | < 100 nM and 100 to 1000 nM | COc1ccccc1S(=O)(=O)N1CCC2(CC1)C1=C(N=NC1)NC1=C2C(=O)CC(C)(C)C1 [US20250313563, Compound 893310] |
| > 5000 nM | > 5000 nM | CC1(C)CC(=O)C2=C(C1)NC1=C(CN=N1)C21CN(S(=O)(=O)c2cccnc2)C1 [US20250313563, Compound 913265] |
| > 5000 nM | > 5000 nM | CC[C@]1(c2cccc(C3=C4CC=CC(Cl)=C4N=CC3)c2)C2=CN=NC2NC2=C1C(=O)NC(C)(C)C2 (stereo partly specified) [US20250313563, Compound 948650] |
| 100 to 1000 nM | 100 to 1000 nM | CC[C@]1(c2cccc(-c3ccnc(C)c3C)c2)C2=C(CC(C)(C)CC2=O)NC2N=NC(C(F)(F)F)=C21 (stereo partly specified) [US20250313563, Compound 947328] |
| 100 to 1000 nM | > 5000 nM | CC[C@@]1(c2cccc(N(C)c3ncccn3)c2)C2=CN=NC2NC2=C1C(=O)NC(C)(C)C2 (stereo partly specified) [US20250313563, Compound 949179] |
| < 100 nM | < 100 nM | CCC1(c2cccc(C(F)(F)F)c2)C2=C(CC(C)(C)CC2=O)NC2N=NC(Br)=C21 (stereo unspecified) [US20250313563, Compound 802358] |
| < 100 nM and 100 to 1000 nM | 100 to 1000 nM and > 5000 nM | CCC1(c2cccc(-c3cc(C)ncc3F)c2)C2=CN=NC2NC2=C1C(=O)NC(C)(C)C2 (stereo unspecified) [US20250313563, Compound 947401] |
| < 100 nM | < 100 nM | CC1(C)CC(=O)C2=C(C1)NC1=C(CN=N1)[C@@]21CCN(S(C)(=O)=O)C1 [US20250313563, Compound 942462] |
